From patent US20070249844A1, “Pyrazole derivatives and process for the production thereof” (Ihara Chemical Industry Co., Ltd., priority 2002, published 2007)

For CCn1nc(C(F)(F)F)c(CS(=O)(=O)C2=NOC(C)(C)C2)c1OCC(F)(F)F, the melting point was 84 to 86 °C.
Compound Cn1nc(C(F)(F)F)c(CS(=O)(=O)C2=NOC(C)(C3CC3)C2)c1OC(F)F (stereo not drawn) has a melting point of 96 to 98 °C.
Cn1nc(C(F)(F)F)c(CS(=O)(=O)C2=NOC3CCCCC23)c1OC(F)F (stereo not drawn) gave a melting point of 97 to 98 °C.
CC(C)C1CC(S(=O)(=O)Cc2c(C(F)(F)F)nn(C)c2OC(F)F)=NO1 (stereo not drawn) showed a melting point of 85 to 86 °C.
In the case of Cn1nc(C(F)(F)F)c(CS(=O)(=O)C2=NOCC2)c1OC(F)F, the melting point is reported as 115 to 117 °C.
Work on CCC1(C)CC(S(=O)(=O)Cc2c(C(F)(F)F)nn(C)c2OC(F)F)=NO1 (stereo not drawn) yielded a melting point of 77 to 78 °C.
In the case of CCn1nc(C(F)(F)F)c(C)c1O, the melting point is reported as 150 to 152 °C.
CCn1nc(C(F)(F)F)c(CS(=O)(=O)C2=NOC(C)(C)C2)c1OC(F)F showed a melting point of 98 to 100 °C.
CC1(C)CC(S(=O)(=O)Cc2c(C(F)(F)F)nn(C(C)(C)C)c2OCC(F)(F)F)=NO1 showed a melting point of 91 to 92 °C.
For Cn1nc(C(F)(F)F)c(CS(=O)(=O)C2=NOC(C)(C)C2)c1OCC(F)F, the melting point was 89 to 91 °C.
CC(C)n1nc(C(F)(F)F)c(CS(=O)(=O)C2=NOC(C)(C)C2)c1OCC(F)F gave a melting point of 88 to 89 °C.
In the case of Br.CCn1nc(C(F)(F)F)c(CSC(=N)N)c1OC(F)F, the melting point is reported as 139 to 141 °C.
Cn1nc(C(F)(F)F)c(CSC2=NOC(C)(C)C2)c1OC(F)F showed a melting point of 39 to 40 °C.
Cn1nc(C(F)(F)F)c(CS(=O)(=O)C2=NOC(C)(C)C2)c1OCC(F)(F)F gave a melting point of 93 to 95 °C.
In the case of CC1CC(S(=O)(=O)Cc2c(C(F)(F)F)nn(C)c2OC(F)F)=NO1 (stereo not drawn), the melting point is reported as 106 to 107 °C.
Work on CCCn1nc(C(F)(F)F)c(C)c1O yielded a melting point of 133 to 134 °C.
With CCCn1nc(C(F)(F)F)c(CS(=O)(=O)C2=NOC(C)(C)C2)c1OCC(F)(F)F the melting point was 49 to 51 °C.
With CC(C)n1nc(C(F)(F)F)c(CS(=O)(=O)C2=NOC(C)(C)C2)c1OCC(F)(F)F the melting point was 109 to 110 °C.
